Results on 14 compounds are retold here after publication PMC6631349 (Xenobiotica; the fate of foreign compounds in biological …, 2014).

One series has as its target T1, UGT1A4 (Homo sapiens, UniProt P22310).
T1 sequence (P22310 29-534): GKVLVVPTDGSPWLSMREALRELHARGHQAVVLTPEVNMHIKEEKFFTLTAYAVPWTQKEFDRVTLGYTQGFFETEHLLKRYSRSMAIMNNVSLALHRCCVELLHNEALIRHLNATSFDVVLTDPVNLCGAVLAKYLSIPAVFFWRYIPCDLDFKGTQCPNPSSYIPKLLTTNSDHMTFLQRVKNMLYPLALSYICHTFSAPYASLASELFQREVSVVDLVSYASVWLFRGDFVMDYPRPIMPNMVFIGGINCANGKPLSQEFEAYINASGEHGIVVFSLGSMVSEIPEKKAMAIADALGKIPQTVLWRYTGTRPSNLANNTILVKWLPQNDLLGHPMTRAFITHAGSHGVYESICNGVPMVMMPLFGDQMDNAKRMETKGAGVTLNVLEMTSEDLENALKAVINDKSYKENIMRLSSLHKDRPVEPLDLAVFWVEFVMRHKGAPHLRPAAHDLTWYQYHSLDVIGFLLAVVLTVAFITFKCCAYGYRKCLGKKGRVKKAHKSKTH
The experiment in a line: UGT1A4-catalyzed trifluoperazine. Particulars: recombinant human UGT1A4, probe trifluoperazine (TFP), 40 μM.

Series [1] relates to multiple UGT isoforms, including UGT1A1, UGT1A3, UGT1A4, UGT1A7, UGT1A10, UGT2B7 and UGT2B15. Conditions: ref Fang et al., 2013b; cited from earlier work.
The next series concerns UGT isoforms. The experiment in a line: Initial screening towards all UGT isoforms. Type of series: biochemical, human. Conditions: about 50 μM; isoforms not given.
Series [2] concerns the target T2, UGT1A6 (Homo sapiens, UniProt P19224).
T2 sequence (P19224 27-532): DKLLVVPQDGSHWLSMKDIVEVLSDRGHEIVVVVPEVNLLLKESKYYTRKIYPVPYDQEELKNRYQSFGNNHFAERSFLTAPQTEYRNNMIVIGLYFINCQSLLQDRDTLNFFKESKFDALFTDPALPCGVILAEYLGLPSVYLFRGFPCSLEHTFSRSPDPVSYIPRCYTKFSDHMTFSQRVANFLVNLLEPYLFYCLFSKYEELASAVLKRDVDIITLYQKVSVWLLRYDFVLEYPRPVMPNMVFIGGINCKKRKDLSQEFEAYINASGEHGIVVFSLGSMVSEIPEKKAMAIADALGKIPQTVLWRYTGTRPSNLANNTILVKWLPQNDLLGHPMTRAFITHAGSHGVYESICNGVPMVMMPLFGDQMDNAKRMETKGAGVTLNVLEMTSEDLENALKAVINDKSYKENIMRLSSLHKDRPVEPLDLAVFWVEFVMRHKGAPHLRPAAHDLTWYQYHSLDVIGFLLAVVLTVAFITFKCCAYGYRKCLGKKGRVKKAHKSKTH
Conditions: Dixon and Lineweaver-Burk plots; 4-MU glucuronidation.

The target in series [3] is T3, UGT1A8 (Homo sapiens, UniProt Q9HAW9).
T3 sequence (Q9HAW9 26-530): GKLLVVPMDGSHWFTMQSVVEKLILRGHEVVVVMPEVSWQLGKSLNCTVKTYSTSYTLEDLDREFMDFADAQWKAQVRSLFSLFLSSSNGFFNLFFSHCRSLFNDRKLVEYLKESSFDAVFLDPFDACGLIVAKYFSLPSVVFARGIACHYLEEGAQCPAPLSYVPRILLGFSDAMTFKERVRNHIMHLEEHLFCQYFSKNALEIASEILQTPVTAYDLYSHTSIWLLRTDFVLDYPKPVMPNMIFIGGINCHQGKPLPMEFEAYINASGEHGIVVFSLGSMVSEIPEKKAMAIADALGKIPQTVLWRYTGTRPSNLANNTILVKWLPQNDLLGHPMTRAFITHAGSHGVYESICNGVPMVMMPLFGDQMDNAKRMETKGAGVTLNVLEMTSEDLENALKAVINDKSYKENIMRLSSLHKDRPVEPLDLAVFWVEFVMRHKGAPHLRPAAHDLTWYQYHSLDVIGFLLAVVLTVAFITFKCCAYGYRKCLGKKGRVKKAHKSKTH
Particulars: Dixon and Lineweaver-Burk plots; 4-MU glucuronidation.

The target in series [4] is T2, UGT1A6. Particulars: 50 μM.
For series [5], the target named is T3, UGT1A8. Conditions: 50 μM.
Another series has as its target T4, UGT2B7 (Homo sapiens, UniProt P16662).
T4 sequence (P16662 24-529): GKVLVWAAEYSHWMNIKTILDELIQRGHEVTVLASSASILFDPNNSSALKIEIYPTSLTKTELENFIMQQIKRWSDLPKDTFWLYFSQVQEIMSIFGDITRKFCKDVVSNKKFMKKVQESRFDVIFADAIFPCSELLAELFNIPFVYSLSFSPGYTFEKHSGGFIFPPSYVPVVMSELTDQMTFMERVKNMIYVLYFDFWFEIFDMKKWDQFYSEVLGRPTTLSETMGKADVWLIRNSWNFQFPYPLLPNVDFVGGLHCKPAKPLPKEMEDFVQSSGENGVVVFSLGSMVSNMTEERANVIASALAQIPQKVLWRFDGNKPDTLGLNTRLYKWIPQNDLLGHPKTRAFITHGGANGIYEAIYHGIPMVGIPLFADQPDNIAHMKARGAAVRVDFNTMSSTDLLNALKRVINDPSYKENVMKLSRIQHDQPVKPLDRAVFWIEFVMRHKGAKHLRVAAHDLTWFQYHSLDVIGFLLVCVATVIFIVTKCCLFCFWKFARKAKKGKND
Particulars: 50 μM.

In a further series the test system is UGTs. Particulars: ref Dragacci et al. (1987); cited from earlier work.
Another series has as its system UGT1A3. Conditions: ref Fang et al., 2014b; cited from earlier work.

Regarding `CCCCCCCC/C=C\CCCCCCCC(=O)OC[C@H](COP(=O)([O-])OCC[N+](C)(C)C)OC(=O)CCCCCCCCCCCCCCCCC` [PC 18:1, 18:0, 1-oleoyl-2-stearoyl-sn-glycero-3-phosphocholine], the activity at 20 min, 50 μM at UGT1A4 turned out to be 60.4%. For the compound `CCCCC/C=C\C/C=C\CCCCCCCC(=O)O[C@H](COC(=O)CCCCCCCCCCCCCCCCC)COP(=O)([O-])OCC[N+](C)(C)C` [PC 18:0, 18:2, 1-stearoyl-2-linoleoyl-sn-glycero-3-phosphocholine], on UGT1A4, the activity at 20 min, 50 μM is 54.3%. Take `C[C@H](CCC(=O)NCCS(=O)(=O)O)[C@H]1CC[C@H]2[C@@H]3CC[C@@H]4C[C@H](O)CC[C@]4(C)[C@H]3CC[C@]12C` [TLCA, taurolithocholic acid]: the “inhibitory effects towards multiple UGT isoforms (in words)” value in [1] is on record as “strong inhibitory effects”. In the case of `CCCCCCCCCCCCCCCC(=O)OC[C@H](COP(=O)([O-])OCC[N+](C)(C)C)OC(C)=O` [PC 16:0, 2:0, 1-palmitoyl-2-acetyl-sn-glycero-3-phosphocholine], the “inhibition of activity of UGT isoforms” value with UGT isoforms is “more than 90%”. Also, at UGT1A4, the activity at 20 min, 50 μM is 5.5% and the inhibition at 20 min, 50 µM amounted to 94.5%. Moreover, the “inhibition kinetic type towards UGT1A6” value at UGT1A6 [2] is reported as “competitive inhibition”. In addition, the “inhibition kinetic type towards UGT1A8” value on UGT1A8 [3] was “non-competitively inhibited”. For `CCCCCCCCCCCCCCCC(=O)OC[C@H](COP(=O)([O-])OCC[N+](C)(C)C)OC(=O)CCCCCCCCCCCCC` [PC 16:0, 14:0, 1-palmitoyl-2-myristoyl-sn-glycero-3-phosphocholine], the activity at 20 min, 50 μM on UGT1A4 is 63.8%. Turning to `CCCCCCCC/C=C\CCCCCCCC(=O)OC[C@@H](O)COP(=O)([O-])OCC[N+](C)(C)C` [LPC 18:1], the “inhibition of activity of UGT isoforms” value in the series with UGT isoforms was “more than 90%”. The “inhibition percentage of UGT1A6 activity” value against UGT1A6 [4] stood at 97.5%. Further, the “inhibition percentage of UGT1A8 activity” value against UGT1A8 [5] came out at 98.7%. Further, the “inhibition percentage of UGT2B7 activity” value against UGT2B7 is listed as 87.3%. In addition, the “increase for UGTs' activity (maximal regulation capability)” value with UGTs is recorded as “approximately 4 fold”. With `C[C@H](CCC(=O)O)[C@H]1CC[C@H]2[C@@H]3[C@H](O)C[C@@H]4C[C@H](O)CC[C@]4(C)[C@H]3C[C@H](O)[C@]12C` [CA, cholic acid], the “effect on the activity of UGT1A3 (in words)” value with UGT1A3 is given as “allosteric activation”. For `CCCCCCCC/C=C\CCCCCCCC(=O)O[C@H](COC(=O)CCCCCCCCCCCCCCC)COP(=O)([O-])OCC[N+](C)(C)C` [PC 16:0, 18:1, 1-palmitoyl-2-oleoyl-sn-glycero-3-phosphocholine], the activity at 20 min, 50 μM at UGT1A4 came to 51.8%.

In the case of `CCCCCCCCCCCCCCCCCC(=O)O[C@H](COC(=O)CCCCCCCCCCCCCCC)COP(=O)([O-])OCC[N+](C)(C)C` [PC 16:0, 18:0, 1-palmitoyl-2-stearoyl-sn-glycero-3-phosphocholine], the activity at 20 min, 50 μM on UGT1A4 was determined as 90%. Take `C[C@H](CCC(=O)NCC(=O)O)[C@H]1CC[C@H]2[C@@H]3[C@H](O)C[C@@H]4C[C@H](O)CC[C@]4(C)[C@H]3C[C@H](O)[C@]12C` [GCA, glycocholic acid]: the “effect on the activity of UGT1A3 (in words)” value with UGT1A3 was “allosteric activation”. As for `CCCCCCCCCCCCCCCC(=O)OC[C@@H](O)COP(=O)([O-])OCC[N+](C)(C)C` [LPC 16:0], the “inhibition of activity of UGT isoforms” value in the series with UGT isoforms is given as “more than 90%”. Regarding `CCCCC/C=C\C/C=C\C/C=C\C/C=C\CCCC(=O)O[C@H](COC(=O)CCCCCCCCCCCCCCCCC)COP(=O)([O-])OCC[N+](C)(C)C` [PC 18:0, 20:4, 1-stearoyl-2-arachidonoyl-sn-glycero-3-phosphocholine], at UGT1A4, the activity at 20 min, 50 μM turned out to be 52.1%.

Take `CCCCCCCC/C=C\CCCCCCCC(=O)OC[C@H](COP(=O)([O-])OCC[N+](C)(C)C)OC(=O)CCCCCCCCCCCCC` [PC 18:1, 14:0, 1-oleoyl-2-myristoyl-sn-glycero-3-phosphocholine]: the activity at 20 min, 50 μM at UGT1A4 worked out at 49.8%. On the same count and under the same terms, the figure for `CCCCCCCC/C=C\CCCCCCCC(=O)OC[C@H](COP(=O)([O-])OCC[N+](C)(C)C)OC(=O)CCCCCCCCCCCCCCC` [PC 18:1, 16:0, 1-oleoyl-2-palmitoyl-sn-glycero-3-phosphocholine] is 52.6%.
